Experimental data from patent US20240261418A1, “SOS1 DEGRADING AGENT AND PREPARATION METHOD THEREFOR AND APPLICATION THEREOF” (SHANGHAI LEADINGTAC PHARMACEUTICAL CO. LTD., priority 2021, published 2024).

How the values were obtained:
[1] = test system: KRAS G12D mutant human metastatic pancreatic adenocarcinoma cells AsPC-1; assay: 3D cell proliferation inhibition assay, AsPC-1; format: cell-based; settings: ASPC1, 168 h, 7 days, CTG
From the text: (§1) Test Example 4: 3D Cell Proliferation Inhibition Assay
(§2) The inhibitory effect of the compounds on the proliferation of 3D cells was investigated on KRAS G12C mutant human non-small cell lung cancer cells NCI-H358 (ATCC or Stem Cell Bank, Chinese Academy of Sciences), KRAS G12D mutant human metastatic pancreatic adenocarcinoma cells AsPC-1 (ATCC), KRAS G12V mutant human lung adenocarcinoma cells NCI-H441 (ATCC), and KRAS G13D mutant human colorectal adenocarcinoma epithelial cells DLD-1 (ATCC). The specific procedures were as follows:
(§3) 200 nL of compound solution diluted in a gradient was added to corresponding microwells of a 384-well low-adsorption microwell plate (Corning, 3657) using an Echo sonic pipetting system (Labcyte, Echo 550), so that the final concentration of the test compound in the reaction system was in a range of 20000 nM-0.008 nM. Then 40 μL of cells at a certain density were added to the corresponding microplate. In addition to test wells for the test compounds, both a DMSO control well and a medium control well were set, with the DMSO control well containing DMSO and cells and the medium well containing only medium. […] The plate was incubated at room temperature for 30 min and read on a microplate reader EnVision using the chemiluminescence program. […]

[2] = test system: KRAS G12C mutant human non-small cell lung cancer cells NCI-H358; assay: 3D cell proliferation inhibition assay, NCI-H358; format: cell-based; settings: NCI-H358, 168 h, 7 days, CTG
From the text: as §1, §2, §3

Structure (SMILES): COc1cc2nc(C)nc(N[C@H](C)c3cc(-c4c(Cl)cccc4CN(C)C)cs3)c2cc1[C@H]1CC[C@H](C(=O)N2CCN(CC3CCC4(CC3)CCN(C(=O)c3ccc(Cl)c(N5CCC(=O)NC5=O)c3)CC4)CC2)CC1 [Example 1, 1-(2-chloro-5-(9-((4-((1R,4R)-4-(4-(((R)-1-(4-(2-chloro-6-((dimethylamino)methyl)phenyl)thien-2-yl)ethyl)amino)-7-methoxy-2-methylquinazolin-6-yl)cyclohexane-1-carbonyl)piperazin-1-yl)methyl)-3-azaspiro[5.5]undecane-3-carbonyl)phenyl)dihydropyrimidine-2,4(1H,3H)-dione]
- IC50 [1]: 15 to 30 nM
- IC50 [2]: ≤ 15 nM

Structure (SMILES): COc1cc2nc(C)nc(N[C@H](C)c3cc(-c4c(Cl)cccc4CN(C)C)cs3)c2cc1[C@H]1CC[C@H](C(=O)N2CCC(CCOCC3CCN(C(=O)c4ccc(Cl)c(N5CCC(=O)NC5=O)c4)CC3)CC2)CC1 [Example 5, 1-(2-chloro-5-(4-((2-(1-((1R,4R)-4-(4-(((R)-1-(4-(2-chloro-6-((dimethylamino)methyl)phenyl)thien-2-yl)ethyl)amino)-7-methoxy-2-methylquinazolin-6-yl)cyclohexane-1-carbonyl)piperidin-4-yl)ethoxy)methyl)piperidine-1-carbonyl)phenyl)dihydropyrimidine-2,4(1H,3H)-dione]
- IC50 [1]: 100 to 1000 nM
- IC50 [2]: ≤ 15 nM
